Measurements: US20260026529A1, “MATERIALS AND METHODS FOR THE MANUFACTURE OF AN ANIMAL FEED” (In the Bowl Animal Health, Inc., priority 2023, published 2026)
Counter-ions that a name gives are not always drawn. Marks after values point to notes of the source that are not given here.

Experiments:
[1] = Solubility of active ingredients in liquid carriers, transmissivity measurement with a crystallizer multi-reactor
Text: To determine the solubility of various active ingredients that could be incorporated into pet food, each active ingredient may be evaluated in a temperature dependent manner using a crystallizer multi-reactor with transmissivity measurements.
Carrier of interest may be prepared as needed and specific active ingredients may be added to the solvents to form mixtures of the solvent and active. […] If mixing and/or heating fails to provide visual evidence that an active ingredient dissolves in the test solvent carrier no further solubility testing of the active ingredient with the test carrier can be conducted.
For active ingredients that appear to at least partially dissolve in a given carrier, the mixtures can be analyzed by transmissivity measurement using a crystallizer multi-reactor. Prior to the transmissivity measurement using a crystallizer multi-reactor with transmissivity capability, carriers may be prepared, as needed, and subsequently tested using a heating cycle over a range of temperatures. The transmissivity data can be recorded over the temperature ranges and used as a blank or reference in subsequent transmissivity measurements.
Typically, initial samples including the active ingredient of interest and the test carrier are not readily soluble at room temperature and may register low percent transmissivity along with visible observations of insolubilized material. When resulting admixtures are heated at a specific heating rate, the percent transmissivity increases as the active ingredient is solubilized. When the solids are completely dissolved, the transmissivity is measured as 100%. When the resulting heated admixture is subsequently cooled, solids may precipitate at a given temperature and cooling rate, which results in a decrease in percent transmissivity. The temperature and time at which precipitation occurs with a specific admixture provides additional information regarding solubility and the combination of parameters needed for selection to prepare feed with the active ingredient of interest.
Carriers include, refined chicken fat, refined chicken fat including lecithin, refined chicken fat including Tween80, refined chicken fat including triacetin, and triacetin may be used as carrier systems over a range of temperatures, ramp rates, stirring rates, and cooling cycles to evaluate stability.
Admixture experiments may be performed with active ingredients including, e.g., mivorilaner, sarolaner, lotilaner, fluralaner, afoxolaner, spinosad, pyrantel, praziquantel, fenbendazole, diethylcarbamazine, moxidectin, gabapentin and metformin in combination with different test carriers using the methodology described herein. “Apparent solubility” is a term used herein to denote that the admixture may be a true solution, i.e., an admixture in which the active ingredient completely dissolves into the carrier liquid. However, the term “apparent solubility” also can include suspensions and emulsions, for example, which resemble a true solution but are not.

[2] = Solubility of mivorilaner in carriers under isothermal conditions; format: physicochemical
Description: The solubility of mivorilaner in a number of carriers was also measured under isothermal conditions.

NCC1(CC(=O)O)CCCCC1 [Gabapentin]
Measured Concentration ([1]; carrier CF, Up to 60 ° C.): 0 mg/g
Time to Achieve Apparent Solubility ([1]; carrier CF, Up to 60 ° C.): Insoluble
Measured Concentration ([1]; carrier Triacetin, 20-22 ° C.): <1 mg/g

CN(C)C(=N)N=C(N)N [Metformin-HCI, Metformin HCl]
Measured Concentration ([1]; carrier CF, Up to 60 ° C.): 0 mg/g
Measured Concentration ([1]; carrier Triacetin, 20-22 ° C.): <1 mg/g

O=C(CNC(=O)c1sc(C2=NO[C@@](c3cc(Cl)c(F)c(Cl)c3)(C(F)(F)F)C2)c2c1CCC2)NCC(F)F [Mivorilaner]
Time to Achieve Apparent Solubility ([1]; carrier Chicken Fat + Tween 80, 2.0 mg/g, 40 ° C.): 1.5** hours
Effect of the presence of lecithin on solubility ([1]; chicken fat vs chicken fat including 4% (w/w) lecithin, 2-16 mg/g, 0.1° C./minute, 39° C. to 60° C., FIG. 5): increased mivorilaner solubility
Solubility in a combination of chicken fat and lecithin ([2]; chicken fat and lecithin): soluble over a wide range of concentrations and temperatures
Solubility observation, chicken fat only ([2]; chicken fat only, all experiments): visible detection of agglomerates was noted in all experiments
